Assay results published in ChEMBL document CHEMBL3885861, “Open TG-GATES”.

Species: Rattus norvegicus
Assay: Open TG-GATES - Regimen: Single
Type: toxicity, organism-based, Sprague-Dawley
Design: regimen Single, gender Male, age 6 weeks
Conditions: in vivo, po, 300 mg/kg, route gavage, dose level High; for APTT / Bas / Eos / Fbg / Hb / Ht / Lym / MCH / MCHC / MCV / Mono / Neu / PT / Plat / RBC / Ret / WBC: tissue Blood; for KIDNEY_L / KIDNEY_R / KIDNEY_TOTAL: tissue Kidney; for LIVER: tissue Liver; for A/G / ALP / ALT / AST / BUN / CRE / Ca / Cl / DBIL / GLC / IP / K / LDH / Na / PL / RALB / TBIL / TC / TG / TP / gamma-GTP: tissue Plasma

Compound: Cc1ccc(C)c(OCCCC(C)(C)C(=O)O)c1 [GEMFIBROZIL]
- TERMINAL_BW (3 h): 224.5 g
- APTT (3 h): 15.3 s
- Bas (3 h): 0%
- Eos (3 h): 0.4%
- Fbg (3 h): 299.8 mg/dL
- Hb (3 h): 13.9 g/dL
- Ht (3 h): 40.1%
- Lym (3 h): 74%
- MCH (3 h): 22.2 pg
- MCHC (3 h): 34.6%
- MCV (3 h): 64.1 fL
- Mono (3 h): 3.2%
- Neu (3 h): 20.8%
- PT (3 h): 12.2 s
- Plat (3 h): 122 x10_4/uL
- RBC (3 h): 625.6 x10_4/ul
- Ret (3 h): 7.4%
- WBC (3 h): 74.7 x10_2/uL
- KIDNEY_L (3 h): 0.9 g
- KIDNEY_R (3 h): 1 g
- KIDNEY_TOTAL (3 h): 1.9 g
- LIVER (3 h): 9.5 g
- A/G (3 h): 0.8
- ALP (3 h): 1942.2 IU/L
- ALT (3 h): 47 IU/L
- AST (3 h): 75.6 IU/L
- BUN (3 h): 13 mg/dL
- CRE (3 h): 0.2 mg/dL
- Ca (3 h): 11.4 mg/dL
- Cl (3 h): 104.6 meq/L
- DBIL (3 h): 0.2 mg/dL
- GLC (3 h): 168 mg/dL
- IP (3 h): 9.9 mg/dL
- K (3 h): 4.4 meq/L
- LDH (3 h): 75.6 IU/L
- Na (3 h): 141.2 meq/L
- PL (3 h): 188.8 mg/dL
- RALB (3 h): 2.7 g/dL
- TBIL (3 h): 0.082 mg/dL
- TC (3 h): 83.6 mg/dL
- TG (3 h): 320 mg/dL
- TP (3 h): 5.8 g/dL
- gamma-GTP (3 h): 1.2 IU/L
- TERMINAL_BW (6 h): 222.4 g
- APTT (6 h): 14.3 s
- Bas (6 h): 0%
- Eos (6 h): 0.6%
- Fbg (6 h): 305.6 mg/dL
- Hb (6 h): 13.7 g/dL
- Ht (6 h): 40%
- Lym (6 h): 77.4%
- MCH (6 h): 21 pg
- MCHC (6 h): 34.2%
- MCV (6 h): 61.3 fL
- Mono (6 h): 3.4%
- Neu (6 h): 17.8%
- PT (6 h): 11.8 s
- Plat (6 h): 122.9 x10_4/uL
- RBC (6 h): 651.8 x10_4/ul
- Ret (6 h): 6.7%
- WBC (6 h): 77.1 x10_2/uL
- KIDNEY_L (6 h): 0.9 g
- KIDNEY_R (6 h): 0.9 g
- KIDNEY_TOTAL (6 h): 1.8 g
- LIVER (6 h): 8.5 g
- A/G (6 h): 0.9
- ALP (6 h): 1762.4 IU/L
- ALT (6 h): 44.2 IU/L
- AST (6 h): 76.2 IU/L
- BUN (6 h): 9.8 mg/dL
- CRE (6 h): 0.2 mg/dL
- Ca (6 h): 11.4 mg/dL
- Cl (6 h): 106.4 meq/L
- DBIL (6 h): 0.1 mg/dL
- GLC (6 h): 171.2 mg/dL
- IP (6 h): 10.8 mg/dL
- K (6 h): 4.3 meq/L
- LDH (6 h): 61.6 IU/L
- Na (6 h): 142.6 meq/L
- PL (6 h): 171.2 mg/dL
- RALB (6 h): 2.7 g/dL
- TBIL (6 h): 0.086 mg/dL
- TC (6 h): 88.2 mg/dL
- TG (6 h): 121 mg/dL
- TP (6 h): 5.5 g/dL
- gamma-GTP (6 h): 1.2 IU/L
- TERMINAL_BW (9 h): 224.1 g
- APTT (9 h): 15 s
- Bas (9 h): 0%
- Eos (9 h): 0.6%
- Fbg (9 h): 306.4 mg/dL
- Hb (9 h): 13.7 g/dL
- Ht (9 h): 40.2%
- Lym (9 h): 75.2%
- MCH (9 h): 21.8 pg
- MCHC (9 h): 34.1%
- MCV (9 h): 64.1 fL
- Mono (9 h): 2.4%
- Neu (9 h): 21%
- PT (9 h): 11.9 s
- Plat (9 h): 117.7 x10_4/uL
- RBC (9 h): 628 x10_4/ul
- Ret (9 h): 7.8%
- WBC (9 h): 52.7 x10_2/uL
- KIDNEY_L (9 h): 1 g
- KIDNEY_R (9 h): 0.9 g
- KIDNEY_TOTAL (9 h): 1.9 g
- LIVER (9 h): 8.3 g
- A/G (9 h): 0.9
- ALP (9 h): 1746.4 IU/L
- ALT (9 h): 38.8 IU/L
- AST (9 h): 68 IU/L
- BUN (9 h): 10.6 mg/dL
- CRE (9 h): 0.2 mg/dL
- Ca (9 h): 11.3 mg/dL
- Cl (9 h): 106.2 meq/L
- DBIL (9 h): 0.1 mg/dL
- GLC (9 h): 177.6 mg/dL
- IP (9 h): 11.8 mg/dL
- K (9 h): 4.3 meq/L
- LDH (9 h): 59.4 IU/L
- Na (9 h): 143.2 meq/L
- PL (9 h): 143.8 mg/dL
- RALB (9 h): 2.7 g/dL
- TBIL (9 h): 0.076 mg/dL
- TC (9 h): 73.2 mg/dL
- TG (9 h): 59.6 mg/dL
- TP (9 h): 5.7 g/dL
- gamma-GTP (9 h): 1.4 IU/L
- TERMINAL_BW (24 h): 224.7 g
- APTT (24 h): 14.7 s
- Bas (24 h): 0%
- Eos (24 h): 0.8%
- Fbg (24 h): 320.4 mg/dL
- Hb (24 h): 13.6 g/dL
- Ht (24 h): 39.5%
- Lym (24 h): 80%
- MCH (24 h): 21.5 pg
- MCHC (24 h): 34.4%
- MCV (24 h): 62.6 fL
- Mono (24 h): 3.4%
- Neu (24 h): 15.2%
- PT (24 h): 12.2 s
- Plat (24 h): 102.6 x10_4/uL
- RBC (24 h): 631.8 x10_4/ul
- Ret (24 h): 6.3%
- WBC (24 h): 73.6 x10_2/uL
- KIDNEY_L (24 h): 1 g
- KIDNEY_R (24 h): 1 g
- KIDNEY_TOTAL (24 h): 2 g
- LIVER (24 h): 10.9 g
- A/G (24 h): 1
- ALP (24 h): 2167.4 IU/L
- ALT (24 h): 46.4 IU/L
- AST (24 h): 74 IU/L
- BUN (24 h): 12.8 mg/dL
- CRE (24 h): 0.2 mg/dL
- Ca (24 h): 11.3 mg/dL
- Cl (24 h): 105.6 meq/L
- DBIL (24 h): 0.1 mg/dL
- GLC (24 h): 189 mg/dL
- IP (24 h): 8 mg/dL
- K (24 h): 4 meq/L
- LDH (24 h): 74.8 IU/L
- Na (24 h): 141.8 meq/L
- PL (24 h): 124 mg/dL
- RALB (24 h): 2.7 g/dL
- TBIL (24 h): 0.06 mg/dL
- TC (24 h): 63.6 mg/dL
- TG (24 h): 67.2 mg/dL
- TP (24 h): 5.5 g/dL
- gamma-GTP (24 h): 1.2 IU/L
